# According to patent publication US20200216863A1, “Use of renewable deep eutectic solvents in a one-pot process for a biomass” (National Technology & Engineering Solutions of Sandia, LLC, priority 2019, published 2020):
# Tests used:
# [1] = tested on: yeast; conditions: cited from earlier work
# [2] = tested on: unmodified control strain; assay type: cell-based, yeast
# Protocol: (§1) The effect of DES-Ch12 supplementation on growth and carbon utilization of JBEI-9009 was analyzed in a plate reader-based assay. […] To test if the presence of DES-Ch12 in the media impairs the ability of the strain JBEI-9009 to efficiently utilize xylose, the strain was cultivated in CSM media with 2 wt % xylose containing 10 wt % Ch12 and final samples were taken for HPLC measurements.
# [3] = tested on: yeast strain JBEI-9009; assay type: cell-based
# Protocol: Next, in order to test the feasibility of C5/C6 sugar cofermentation and thus to further improve the economic feasibility of the process,(22) the yeast strain JBEI-9009, developed in our lab for optimized xylose consumption,(30) was used for further experiments.
# as §1
compound,measurement,setting,value
O=C(O)/C=C/c1ccc(O)cc1 [p-coumaric acid],concentration required for inhibition of yeast growth,[1],~1000 µM
"O=Cc1ccc(CO)o1 [HMF, hydroxymethylfurfural]",concentration with significant inhibition of yeast growth,[1],3000 µg/mL
same,ethanol yield in presence of inhibitor,[1],89%
[Ch][Cl]-2glycerol [Ch12],growth tolerance,[2],without showing significant growth limitations
same,growth tolerance,[3],without showing significant growth limitations
same,lag phase,[3],longer lag phase
O=C(O)c1ccccc1 [Benzoic acid],concentration required for inhibition of yeast growth,[1],~1000 µM
